Test results from ChEMBL document CHEMBL4507319 (2021).

Assays:
Conditions in all cases: Compound concentration 1000.0 nM
[1] = molecular target: Cyclin-dependent kinase 3 (Homo sapiens) (UniProt Q00526)
[2] = molecular target: Ribosomal protein S6 kinase alpha-6 (Homo sapiens) (UniProt Q9UK32)
[3] = molecular target: Interleukin-1 receptor-associated kinase 1 (Homo sapiens) (UniProt P51617)
[4] = molecular target: Serine/threonine-protein kinase DCLK2 (Homo sapiens) (UniProt Q8N568)
[5] = molecular target: T1, Rhodopsin kinase GRK7 (Homo sapiens) (UniProt Q8WTQ7)
T1 sequence (whole entry): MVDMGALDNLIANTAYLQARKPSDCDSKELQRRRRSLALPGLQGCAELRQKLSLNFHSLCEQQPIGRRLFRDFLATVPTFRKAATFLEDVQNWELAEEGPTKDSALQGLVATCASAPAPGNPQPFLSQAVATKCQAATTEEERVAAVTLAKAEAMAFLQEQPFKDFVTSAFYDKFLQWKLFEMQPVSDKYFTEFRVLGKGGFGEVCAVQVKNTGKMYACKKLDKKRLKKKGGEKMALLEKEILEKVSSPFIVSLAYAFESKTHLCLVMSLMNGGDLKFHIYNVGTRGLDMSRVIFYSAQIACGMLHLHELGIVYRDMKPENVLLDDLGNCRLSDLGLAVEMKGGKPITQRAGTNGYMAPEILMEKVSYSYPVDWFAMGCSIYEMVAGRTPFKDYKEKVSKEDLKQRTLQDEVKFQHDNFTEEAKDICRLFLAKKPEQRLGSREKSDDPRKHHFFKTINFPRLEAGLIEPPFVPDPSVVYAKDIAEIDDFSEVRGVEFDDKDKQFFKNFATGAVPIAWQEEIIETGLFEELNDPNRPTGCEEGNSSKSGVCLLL

[6] = molecular target: Tyrosine-protein kinase receptor Tie-1 (Homo sapiens) (UniProt P35590)
Sequence of Tyrosine-protein kinase receptor Tie-1 (Homo sapiens) (P35590 whole entry): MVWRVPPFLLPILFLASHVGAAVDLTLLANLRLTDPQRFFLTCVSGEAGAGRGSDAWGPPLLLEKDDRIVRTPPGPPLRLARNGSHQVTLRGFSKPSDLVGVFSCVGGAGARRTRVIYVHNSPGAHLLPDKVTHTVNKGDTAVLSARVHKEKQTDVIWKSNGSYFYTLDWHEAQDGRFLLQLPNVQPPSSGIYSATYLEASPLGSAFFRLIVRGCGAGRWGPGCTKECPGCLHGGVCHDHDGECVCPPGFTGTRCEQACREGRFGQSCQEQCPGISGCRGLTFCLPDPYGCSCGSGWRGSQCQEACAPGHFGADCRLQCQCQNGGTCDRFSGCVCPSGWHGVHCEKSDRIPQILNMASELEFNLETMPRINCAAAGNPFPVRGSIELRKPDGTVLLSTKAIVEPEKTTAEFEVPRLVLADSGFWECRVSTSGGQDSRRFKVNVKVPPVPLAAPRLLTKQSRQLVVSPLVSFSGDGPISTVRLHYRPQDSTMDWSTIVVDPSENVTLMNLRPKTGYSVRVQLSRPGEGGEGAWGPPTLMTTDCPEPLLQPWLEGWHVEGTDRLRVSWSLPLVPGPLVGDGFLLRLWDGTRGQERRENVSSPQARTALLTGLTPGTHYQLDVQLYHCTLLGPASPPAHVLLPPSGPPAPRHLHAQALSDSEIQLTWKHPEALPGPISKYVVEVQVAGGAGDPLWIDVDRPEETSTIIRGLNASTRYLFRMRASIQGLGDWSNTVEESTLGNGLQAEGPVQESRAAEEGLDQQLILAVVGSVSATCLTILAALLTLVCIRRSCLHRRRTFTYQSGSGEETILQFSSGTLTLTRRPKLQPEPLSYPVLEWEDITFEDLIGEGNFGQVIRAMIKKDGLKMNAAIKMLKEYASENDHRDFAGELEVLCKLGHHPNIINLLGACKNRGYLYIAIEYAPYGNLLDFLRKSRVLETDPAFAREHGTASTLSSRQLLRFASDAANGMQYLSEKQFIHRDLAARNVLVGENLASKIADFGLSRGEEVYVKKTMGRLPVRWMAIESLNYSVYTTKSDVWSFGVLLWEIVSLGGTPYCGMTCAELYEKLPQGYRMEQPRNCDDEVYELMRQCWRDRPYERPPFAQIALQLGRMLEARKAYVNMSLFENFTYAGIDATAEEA

[7] = molecular target: Tyrosine-protein kinase Fer (Homo sapiens) (UniProt P16591)
[8] = molecular target: Dual specificity tyrosine-phosphorylation-regulated kinase 1A (Homo sapiens) (UniProt Q13627)
[9] = molecular target: Serine/threonine-protein kinase SBK1 (Homo sapiens) (UniProt Q52WX2)
[10] = molecular target: Receptor tyrosine-protein kinase erbB-3 (Homo sapiens) (UniProt P21860)
Sequence of Receptor tyrosine-protein kinase erbB-3 (Homo sapiens) (P21860 whole entry): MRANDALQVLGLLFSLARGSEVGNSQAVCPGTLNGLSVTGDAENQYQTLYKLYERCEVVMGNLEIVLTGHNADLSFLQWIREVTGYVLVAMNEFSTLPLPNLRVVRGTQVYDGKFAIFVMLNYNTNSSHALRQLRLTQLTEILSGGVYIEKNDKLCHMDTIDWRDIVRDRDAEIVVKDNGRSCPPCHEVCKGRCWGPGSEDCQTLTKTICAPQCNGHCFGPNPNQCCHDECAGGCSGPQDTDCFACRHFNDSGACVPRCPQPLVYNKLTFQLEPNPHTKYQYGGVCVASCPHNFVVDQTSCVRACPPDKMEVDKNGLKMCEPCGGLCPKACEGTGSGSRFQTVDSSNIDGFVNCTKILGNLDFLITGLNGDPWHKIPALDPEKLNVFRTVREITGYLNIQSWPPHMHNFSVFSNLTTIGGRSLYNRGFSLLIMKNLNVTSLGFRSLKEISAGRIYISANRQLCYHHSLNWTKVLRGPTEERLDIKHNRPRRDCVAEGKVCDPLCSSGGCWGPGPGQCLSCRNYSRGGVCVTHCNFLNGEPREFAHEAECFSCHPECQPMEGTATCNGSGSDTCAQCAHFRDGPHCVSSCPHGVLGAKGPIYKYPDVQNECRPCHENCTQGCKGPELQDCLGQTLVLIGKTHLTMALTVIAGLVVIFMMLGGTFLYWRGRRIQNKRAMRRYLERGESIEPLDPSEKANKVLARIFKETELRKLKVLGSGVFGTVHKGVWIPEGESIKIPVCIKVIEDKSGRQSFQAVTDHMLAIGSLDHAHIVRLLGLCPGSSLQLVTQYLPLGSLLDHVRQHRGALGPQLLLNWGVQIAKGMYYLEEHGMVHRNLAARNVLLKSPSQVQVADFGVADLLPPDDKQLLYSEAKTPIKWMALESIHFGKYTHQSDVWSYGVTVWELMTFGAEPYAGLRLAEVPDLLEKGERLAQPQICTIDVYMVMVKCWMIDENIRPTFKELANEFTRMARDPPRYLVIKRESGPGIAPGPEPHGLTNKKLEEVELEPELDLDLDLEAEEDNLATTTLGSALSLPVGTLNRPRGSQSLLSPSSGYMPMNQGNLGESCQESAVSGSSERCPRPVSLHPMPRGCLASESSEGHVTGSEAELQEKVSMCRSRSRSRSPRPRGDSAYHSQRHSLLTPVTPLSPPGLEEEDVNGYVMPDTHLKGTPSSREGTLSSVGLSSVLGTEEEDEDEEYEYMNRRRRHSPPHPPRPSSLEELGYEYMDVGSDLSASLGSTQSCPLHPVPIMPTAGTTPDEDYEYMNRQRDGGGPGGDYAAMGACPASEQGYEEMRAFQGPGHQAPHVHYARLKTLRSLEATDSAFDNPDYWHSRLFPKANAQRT

[11] = molecular target: T2, Serine/threonine-protein kinase BRSK2 (Homo sapiens) (UniProt Q8IWQ3)
T2 sequence (whole entry): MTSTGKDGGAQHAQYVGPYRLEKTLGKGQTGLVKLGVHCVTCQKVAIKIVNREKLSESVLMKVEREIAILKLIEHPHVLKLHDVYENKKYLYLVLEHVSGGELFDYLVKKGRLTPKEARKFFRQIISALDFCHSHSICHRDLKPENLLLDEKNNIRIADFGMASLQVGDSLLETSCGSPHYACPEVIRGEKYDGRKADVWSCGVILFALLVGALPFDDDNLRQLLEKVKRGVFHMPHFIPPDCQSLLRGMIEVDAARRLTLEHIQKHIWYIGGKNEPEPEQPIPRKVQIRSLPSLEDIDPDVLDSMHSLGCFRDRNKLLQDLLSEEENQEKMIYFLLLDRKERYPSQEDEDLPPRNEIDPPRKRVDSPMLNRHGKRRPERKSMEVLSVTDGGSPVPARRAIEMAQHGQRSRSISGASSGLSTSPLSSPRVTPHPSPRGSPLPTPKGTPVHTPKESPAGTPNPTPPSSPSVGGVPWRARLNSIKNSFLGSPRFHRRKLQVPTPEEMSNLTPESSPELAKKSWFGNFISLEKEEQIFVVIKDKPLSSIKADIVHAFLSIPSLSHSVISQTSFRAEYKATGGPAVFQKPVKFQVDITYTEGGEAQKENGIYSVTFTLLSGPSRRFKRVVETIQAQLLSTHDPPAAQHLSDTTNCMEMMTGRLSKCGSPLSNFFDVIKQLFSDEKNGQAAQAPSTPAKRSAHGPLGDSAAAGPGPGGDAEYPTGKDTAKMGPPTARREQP

[12] = molecular target: Cyclin-dependent kinase 15 (Homo sapiens) (UniProt Q96Q40)
[13] = molecular target: T3, Homeodomain-interacting protein kinase 4 (Homo sapiens) (UniProt Q8NE63)
T3 sequence (whole entry): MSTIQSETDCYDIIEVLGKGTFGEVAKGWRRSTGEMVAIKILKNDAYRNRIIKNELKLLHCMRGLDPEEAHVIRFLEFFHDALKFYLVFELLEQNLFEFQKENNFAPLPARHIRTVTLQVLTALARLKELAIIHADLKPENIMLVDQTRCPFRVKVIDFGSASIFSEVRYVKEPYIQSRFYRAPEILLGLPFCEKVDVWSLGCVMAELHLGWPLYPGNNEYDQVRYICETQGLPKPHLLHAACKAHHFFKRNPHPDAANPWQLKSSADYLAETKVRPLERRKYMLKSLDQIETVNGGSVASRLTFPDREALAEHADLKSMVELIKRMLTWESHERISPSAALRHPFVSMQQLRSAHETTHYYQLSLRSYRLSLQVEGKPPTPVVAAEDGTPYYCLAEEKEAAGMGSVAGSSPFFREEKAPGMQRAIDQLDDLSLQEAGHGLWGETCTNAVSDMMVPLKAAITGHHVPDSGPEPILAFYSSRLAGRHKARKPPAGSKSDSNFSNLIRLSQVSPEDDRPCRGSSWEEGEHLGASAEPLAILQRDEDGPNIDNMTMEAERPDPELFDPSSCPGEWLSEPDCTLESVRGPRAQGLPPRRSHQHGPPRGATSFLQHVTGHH

[14] = molecular target: Insulin receptor-related protein (Homo sapiens) (UniProt P14616)
Sequence of Insulin receptor-related protein (Homo sapiens) (P14616 27-742 limits assumed): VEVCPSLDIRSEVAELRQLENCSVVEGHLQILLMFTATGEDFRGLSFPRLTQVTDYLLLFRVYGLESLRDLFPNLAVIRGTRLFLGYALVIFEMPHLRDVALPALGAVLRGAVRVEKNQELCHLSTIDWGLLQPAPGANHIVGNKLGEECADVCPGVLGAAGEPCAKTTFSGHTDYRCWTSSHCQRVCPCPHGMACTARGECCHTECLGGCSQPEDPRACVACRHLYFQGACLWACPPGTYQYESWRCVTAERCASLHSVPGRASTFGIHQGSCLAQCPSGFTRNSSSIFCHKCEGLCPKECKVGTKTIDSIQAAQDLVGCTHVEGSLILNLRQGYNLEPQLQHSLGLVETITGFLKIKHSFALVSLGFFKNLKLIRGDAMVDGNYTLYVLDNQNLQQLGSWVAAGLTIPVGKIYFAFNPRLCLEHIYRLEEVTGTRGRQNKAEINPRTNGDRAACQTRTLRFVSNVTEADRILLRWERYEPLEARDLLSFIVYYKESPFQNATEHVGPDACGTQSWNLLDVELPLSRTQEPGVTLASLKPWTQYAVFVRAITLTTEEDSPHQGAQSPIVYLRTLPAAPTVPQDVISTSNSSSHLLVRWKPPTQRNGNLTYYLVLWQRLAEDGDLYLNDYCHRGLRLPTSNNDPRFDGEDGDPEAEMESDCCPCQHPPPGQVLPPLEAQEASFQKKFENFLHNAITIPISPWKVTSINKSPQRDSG
Sequence of Insulin receptor-related protein (Homo sapiens) (P14616 747-1297 limits assumed): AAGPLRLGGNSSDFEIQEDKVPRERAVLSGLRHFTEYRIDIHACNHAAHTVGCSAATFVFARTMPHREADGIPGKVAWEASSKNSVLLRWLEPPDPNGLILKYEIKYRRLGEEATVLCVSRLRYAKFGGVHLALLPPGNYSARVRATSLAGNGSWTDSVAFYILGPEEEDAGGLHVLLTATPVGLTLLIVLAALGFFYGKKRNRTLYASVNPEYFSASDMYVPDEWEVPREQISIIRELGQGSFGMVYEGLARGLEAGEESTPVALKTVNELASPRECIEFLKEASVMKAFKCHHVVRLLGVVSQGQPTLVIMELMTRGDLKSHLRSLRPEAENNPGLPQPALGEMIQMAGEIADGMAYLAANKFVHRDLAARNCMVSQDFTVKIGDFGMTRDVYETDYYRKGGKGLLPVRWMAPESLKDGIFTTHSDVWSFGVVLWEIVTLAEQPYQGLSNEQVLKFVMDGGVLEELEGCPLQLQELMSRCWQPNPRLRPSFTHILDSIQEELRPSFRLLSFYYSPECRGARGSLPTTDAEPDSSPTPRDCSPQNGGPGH

Sequence of Interleukin-1 receptor-associated kinase 1 (Homo sapiens) (P51617 whole entry, looked up): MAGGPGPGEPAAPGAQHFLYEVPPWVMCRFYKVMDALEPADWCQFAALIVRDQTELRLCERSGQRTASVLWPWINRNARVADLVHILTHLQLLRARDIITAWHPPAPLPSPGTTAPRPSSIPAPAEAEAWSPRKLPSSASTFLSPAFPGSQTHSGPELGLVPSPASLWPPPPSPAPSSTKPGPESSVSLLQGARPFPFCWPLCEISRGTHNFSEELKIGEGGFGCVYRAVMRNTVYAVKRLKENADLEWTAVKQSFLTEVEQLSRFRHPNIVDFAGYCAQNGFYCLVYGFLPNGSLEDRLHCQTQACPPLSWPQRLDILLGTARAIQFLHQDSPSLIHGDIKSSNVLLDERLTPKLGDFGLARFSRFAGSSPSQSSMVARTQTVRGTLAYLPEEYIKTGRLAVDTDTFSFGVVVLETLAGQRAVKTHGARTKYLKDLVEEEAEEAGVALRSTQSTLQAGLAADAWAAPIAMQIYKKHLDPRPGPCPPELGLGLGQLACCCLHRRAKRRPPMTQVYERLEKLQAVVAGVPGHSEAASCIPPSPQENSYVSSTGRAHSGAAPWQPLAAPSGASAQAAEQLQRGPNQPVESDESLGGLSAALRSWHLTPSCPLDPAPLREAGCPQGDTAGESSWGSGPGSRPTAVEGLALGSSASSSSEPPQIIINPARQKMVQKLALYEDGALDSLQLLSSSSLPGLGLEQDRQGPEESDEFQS
Sequence of Cyclin-dependent kinase 3 (Homo sapiens) (Q00526 whole entry, looked up): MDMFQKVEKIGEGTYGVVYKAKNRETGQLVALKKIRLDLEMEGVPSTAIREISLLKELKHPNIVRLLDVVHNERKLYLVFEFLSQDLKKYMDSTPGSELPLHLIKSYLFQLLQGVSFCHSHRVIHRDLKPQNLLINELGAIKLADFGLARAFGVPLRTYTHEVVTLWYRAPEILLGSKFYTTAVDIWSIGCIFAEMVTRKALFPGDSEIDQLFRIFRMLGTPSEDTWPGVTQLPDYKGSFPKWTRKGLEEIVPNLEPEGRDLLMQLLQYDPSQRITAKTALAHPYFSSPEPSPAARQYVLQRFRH

SMILES	residual activity [1]	residual activity [2]	residual activity [3]	residual activity [4]	residual activity [5]	residual activity [6]	residual activity [7]	residual activity [8]	residual activity [9]	residual activity [10]	residual activity [11]	residual activity [12]	residual activity [13]	residual activity [14]
CC1=C(C#N)C(c2ccc3c(c2)c(NC(=O)c2ccccc2C)nn3C)C(C#N)=C(C)N1 [BAY-974]	99%	83%	75%	100%	70%	94%	88%	97%	98%	100%	92%	100%	80%	100%
CCc1ccccc1C(=O)Nc1n[nH]c2c(C)c(F)c(C3C(C#N)=C(C)N(C)C(C)=C3C#N)cc12 [BAY-3827]	88%	100%	100%	64%	54%	100%	90%	100%	100%	91%	36%	95%	100%	99%
